Test in all cases: MIC measurement, YAG medium
What all share (assay type): cell-based

Assay [1] concerns Aspergillus fumigatus AF210. Conditions: Aspergillus fumigatus, MIC banded into grades, strain AF210, read-out: MIC A. fumigatus 210. The procedure, abridged: (§1)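 Spores from 5-day Sabouraud agar cultures were diluted in YAG medium (1% glucose, 1% ammonium chloride, 0.5% yeast extract) to a final inoculum of 1-2×10^4 cfu/mL, with drug at 50-0.05 mg/L. Plates were incubated 24 h at 35° C and read as OD 485 nm. MIC is the lowest concentration giving >70% inhibition versus drug-free control, in mg/L.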

A further assay relates to Aspergillus fumigatus. Conditions: Aspergillus fumigatus; YAG medium; MIC banded into grades; strain AF293; read-out: MIC A. fumigatus. In outline:
as §1

Another assay concerns Aspergillus terreus. Conditions: Aspergillus terreus, MIC banded into grades, strain not named in head (AT4). The procedure, abridged: as §1
The next assay has as its system Aspergillus terreus AT49. Conditions: Aspergillus terreus, MIC banded into grades, strain AT49, read-out: MIC A. terreus 49. In outline:
as §1

The test system of a further assay is Aspergillus niger. Conditions: Aspergillus niger, MIC banded into grades. In outline:
as §1

The subject of another assay is Aspergillus flavus. The note with it: Aspergillus flavus, MIC banded into grades, lowest concentration inhibiting growth by >70%. The procedure, abridged: as §1

Converted amounts (≈) assume the structure as drawn.

One may read the MIC as the least concentration at which growth counts as inhibited. `O=C(Nc1ccc(N2CCN(c3ccc(CN4CCOCC4)cn3)CC2)cc1)C(=O)c1c(-c2ccccc2)cc2ccccn12` [Example 77, N-{4-[4-(5-morpholin-4-yl-methyl-pyridin-2-yl)-piperazin-1-yl]-phenyl}-2-oxo-2-(2-phenyl-indolizin-3-yl)-acetamide]: the MIC (in assay [1]; in the assay with Aspergillus fumigatus; against Aspergillus terreus; in the assay on Aspergillus terreus AT49; against Aspergillus niger; with Aspergillus flavus) was below 1 mg/L throughout.
As for `O=C(Nc1ccc(N2CCN(Cc3ccco3)CC2)nc1)C(=O)c1c(-c2ccccc2)cc2ccccn12` [Example 34], the MIC (in assay [1]; in the assay with Aspergillus fumigatus; against Aspergillus terreus; with Aspergillus terreus AT49; in the assay with Aspergillus niger; against Aspergillus flavus) was below 1 mg/L in each case.
Take `Cc1cc(N2CCN(c3ccc(NC(=O)C(=O)c4c(-c5ccccc5)cc5ccccn45)cc3)CC2)nc(C)n1` [Example 45]: the MIC in assay [1] is below 1 mg/L; in the assay on Aspergillus fumigatus, below 1 mg/L; in the assay on Aspergillus terreus, below 1 mg/L; in the assay with Aspergillus terreus AT49 it was below 1 mg/L; in the assay on Aspergillus niger it was 1 to 10 mg/L (≈ 1.88 to 18.8 µM); against Aspergillus flavus, below 1 mg/L.
Regarding `CCOCCN(C1=NC(C)(C)CO1)c1ccc(NC(=O)C(=O)c2c(-c3ccccc3)cc3ccccn23)cc1` [Example 28], the MIC was 1 to 10 mg/L (≈ 1.91 to 19.1 µM) in assay [1]; 1 to 10 mg/L (≈ 1.91 to 19.1 µM) in the assay on Aspergillus fumigatus; 1 to 10 mg/L (≈ 1.91 to 19.1 µM) in the assay with Aspergillus terreus; 1 to 10 mg/L (≈ 1.91 to 19.1 µM) in the assay on Aspergillus terreus AT49; below 1 mg/L against Aspergillus niger; 1 to 10 mg/L (≈ 1.91 to 19.1 µM) against Aspergillus flavus.
For the compound `O=C(Nc1ccc(N2CCN(c3ccccn3)CC2)cc1)C(=O)c1c(-c2ccccc2)cc2ccc(F)cn12` [Example 42, 2-(6-Fluoro-2-phenyl-indolizin-3-yl)-2-oxo-N-[4-(4-pyridin-2-yl-piperazin-1-yl)phenyl] acetamide], the MIC (in assay [1]; with Aspergillus fumigatus; with Aspergillus terreus; in the assay on Aspergillus terreus AT49; with Aspergillus niger; with Aspergillus flavus) was below 1 mg/L in each case.
Take `O=C(Nc1ccc(N2CCN(Cc3cccs3)CC2)cc1)C(=O)c1c(-c2ccccc2)cc2ccccn12` [Example 33, 2-Oxo-2-(2-phenylindolizin-3-yl)-N-[4-(4-thiophen-2-ylmethylpiperazin-1-yl)phenyl] acetamide]: the minimum inhibitory concentration (MIC) (in assay [1]; in the assay with Aspergillus fumigatus; in the assay with Aspergillus terreus; in the assay with Aspergillus terreus AT49; in the assay on Aspergillus niger; against Aspergillus flavus) was below 1 mg/L in each case.
As for `Cc1nc(C(C)C)cn1C(C)(C)c1cccc(NC(=O)C(=O)c2c(-c3ccccc3)cc3ccccn23)c1` [Example 25], the minimum inhibitory concentration (MIC) in assay [1] is above 10 mg/L; with Aspergillus fumigatus it was above 10 mg/L; with Aspergillus terreus, 1 to 10 mg/L (≈ 1.98 to 19.8 µM); in the assay with Aspergillus terreus AT49 it was 1 to 10 mg/L (≈ 1.98 to 19.8 µM); against Aspergillus niger, above 10 mg/L; with Aspergillus flavus, 1 to 10 mg/L (≈ 1.98 to 19.8 µM).
`O=C(Nc1ccc(N2CCN(Cc3ccco3)CC2)cc1)C(=O)c1c(-c2ccccc2)cc2ccccn12` [Example 31, 4-[4-(2-Furan-2-yl-methyl-piperazin-yl)-phenyl]-2-oxo-2-(2-phenyl-indolizin-3-yl)-acetamide]: the minimal inhibitory concentration (MIC) (in assay [1]; in the assay on Aspergillus fumigatus; in the assay on Aspergillus terreus; with Aspergillus terreus AT49; in the assay on Aspergillus niger; in the assay with Aspergillus flavus) was below 1 mg/L throughout.
For `O=C(Nc1ccc(N2CCN(CCc3ccccn3)CC2)cc1)C(=O)c1c(-c2ccccc2)cc2ccccn12` [Example 36, 2-Oxo-2-(2-phenyl-indolizin-3-yl)-N-{4-[4-(2-pyridin-yl-ethyl)-perazin-1-yl]-phenyl}-acetamide], the MIC (in assay [1]; in the assay on Aspergillus fumigatus; with Aspergillus terreus; in the assay with Aspergillus terreus AT49; with Aspergillus niger; in the assay with Aspergillus flavus) was below 1 mg/L each time.

Source of the values: US8604029B2, “2-[(2-substituted)-indolizin-3-yl]-2-oxo-acetamide derivatives as antifungal agents” (F2G Ltd British Body Corporate, priority 2006, dated 2013).
